Laboratory results reported in US12679878B2, “CRF2 receptor agonists and their use in therapy” (SANOFI, priority 2020, dated 2026).
In brackets after ≈: the same amount, converted by molar mass. Read-outs that look alike come from different tables or passages of the source. Starred links: 1 amine or outer side, 2 acyl side, 3 side chain; linkers in the order of their positions; H or OH if unused. Non-standard residues stand in square brackets, D forms with d. Residues, ends and D or L forms follow the SMILES beside them. Groups on a side chain read outwards from the residue. *: point of attachment. C18 diacid = O=C(O)CCCCCCCCCCCCCCCCC(=O)*; γGlu = O=C(O)[C@H](CCC(=O)[*:2])N[*:1]; AEEA = NCCOCCOCC(=O)O; Aib = CC(C)(N)C(=O)O

Columns and labels:
[1] = Solubility in buffer systems by UPLC-UV (Example 13); format: physicochemical
How it was run: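 Quantitation used UV peak area from UPLC of the 1:10-diluted supernatant, set against a reference-compound standard curve with extinction coefficients adjusted for amino acid sequence.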

[2] = Physical stability, dynamic light scattering assay (Example 15); format: physicochemical; settings: Buffer A (100 mM acetate, pH 4.5); for Apparent Rh [nm] 4 weeks / Scattering Intensity (I) [%] 4 weeks: 4 weeks at 40° C.
Procedure: The physical stability of the compounds was also assessed using a dynamic light scattering assay.
In the present study, the physical stability of test compounds was assessed by determining the apparent hydrodynamic radius (Rh), the scattering intensity (I) and mass contribution (M) after synthesis (0 weeks) and after storage for 4 weeks at 40° C.
For each solution of test compound, the hydrodynamic radius Rh and the diffusion constant D (related via the Stokes-Einstein equation) were determined as an average over triplicates. Both parameters were determined at different compound concentrations (e.g., Rh1 and D1: 1 mg/ml and Rh5 and D5: 5 mg/ml, Rh10 and D10: 10 mg/mL) in the same buffer system. The difference of these parameters between low and high peptide concentration is a surrogate for the DLS interaction parameter kD. […] In addition, the hydrodynamic radius Rh and the corresponding Scattering Intensity (%) were determined as an average over duplicates. The target concentration was 300 μM. Therefore, solutions from solid samples were prepared in a buffer system with a concentration of 300 μM compound based on the previously determined % purity.
DLS measurements were performed on a DynaPro Plate Reader I (Wyatt Technology, Santa Barbara, CA, US) with an 837 nm laser light source at a scattering angle of 150°. The data were collected and processed with Dynamics V 7.8.1.3 or 7.8.2.18 software provided by Wyatt Technology.
Hydrodynamic radii were determined with non-negatively constrained least squares (NNLS) methods using DYNALS algorithms with regularization fit. […] Samples were tempered over 1 hour at +25° C. and visually inspected before analysis.
Samples were mixed with the aid of a pipet tip. Measurements were performed in 5 replicates. […] The plate was centrifuged for 2 minutes at 600 rcf. After removing the sealing, the samples were measured at +25° C.

[3] = Chemical stability, purity loss by UPLC-UV after 28 days at 40° C. vs 5° C., pH 4.5 acetate buffer (Example 12); format: physicochemical; settings: 28 days 40° C. vs 5° C.; pH 4.5, 20 mM acetate buffer; 300 μM
Procedure: The chemical stability of the compounds was assessed by storing the compounds under various conditions and then determining the loss of purity by UPLC-UV.
Prior to measuring the chemical stability of a batch of test compound, the purity of the compound was determined through UPLC/MS. For stability testing the target concentration was 300 μM pure compound. Therefore, solutions from solid samples were prepared in a pH 4.5, 20 mM acetate buffer system with a concentration of 300 μM compound based on the previously determined % purity:
At the starting point, UPLC-UV was performed by injection of 2 μl of the undiluted sample. Aliquots were then stored for 28 days at temperatures of 5 and 40° C. […] Then 2 μl samples of the undiluted supernatant were analysed with UPLC-UV. The chemical stability was calculated by the equation: [(purity after 28 days at 5° C.)−(purity after 28 days at 40° C.)]/(purity after 28 days at 5° C.)]×100%. The purity was calculated as: [(peak area compound)/(total peak area)]×100%.

human CRF2α receptor = target: T1, human CRF2α receptor (Homo sapiens, UniProt Q13324); assay: cAMP agonism at human CRF2 α receptor in TeloHEAC cells (Example 7); format: cell-based; settings: cAMP HTRF, TeloHEAC cells stably expressing human CRF2 α
T1 construct: expressed in transfected cells; host or cells: TeloHEAC
T1 sequence (Q13324 1-411): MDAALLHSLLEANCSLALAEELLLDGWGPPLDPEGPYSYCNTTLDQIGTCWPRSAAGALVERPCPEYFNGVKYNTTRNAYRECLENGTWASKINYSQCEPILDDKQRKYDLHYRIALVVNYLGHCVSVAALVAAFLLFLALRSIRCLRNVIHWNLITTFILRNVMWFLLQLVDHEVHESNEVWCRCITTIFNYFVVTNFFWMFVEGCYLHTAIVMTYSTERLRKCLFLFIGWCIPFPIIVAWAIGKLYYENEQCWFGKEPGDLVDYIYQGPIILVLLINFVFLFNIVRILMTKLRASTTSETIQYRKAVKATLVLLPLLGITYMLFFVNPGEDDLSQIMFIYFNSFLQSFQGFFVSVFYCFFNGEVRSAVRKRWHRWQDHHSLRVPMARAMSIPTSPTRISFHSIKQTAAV
How it was run: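 HTRF ratio 665/620 nm, read 1 h after lysis reagents, reports cAMP. Cells: thawed stocks, 2000/well, 30 min RT with compound in HBSS, 20 mM HEPES, 0 or 0.1% HSA, 2 mM IBMX. Activity normalised to UCN2 1000 nM = 100%; EC50 from half-maximal activation.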

rat CRF2R α receptor = assay: cAMP agonism at rat CRF2R α receptor in A7R5 rat aortic smooth muscle cells (Example 8); format: cell-based; settings: cAMP HTRF, A7R5 rat aortic smooth muscle cell line, 0% HSA
How it was run: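 Potency (EC50) is the concentration reaching half-maximal activation, with responses scaled so that 1000 nM urocortin 2 equals 100%. Intracellular cAMP was quantified by homogeneous time-resolved fluorescence at 665/620 nm, 1 h after lysis-buffer reagents. Compound stimulation lasted 30 min at room temperature on 2000 IBMX-treated (2 mM) cells per well in HEPES-buffered HBSS.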

CRF1R receptor = target: T2, CRF1R receptor (Homo sapiens, UniProt P34998); assay: cAMP activity at anti-target CRF1R, CRF1R-overexpression CHO cell line (Example 9); format: cell-based; settings: CRF1R-overexpression CHO cell line
T2 construct: host or cells: CHO-K1 clone 2
T2 sequence (P34998 24-415): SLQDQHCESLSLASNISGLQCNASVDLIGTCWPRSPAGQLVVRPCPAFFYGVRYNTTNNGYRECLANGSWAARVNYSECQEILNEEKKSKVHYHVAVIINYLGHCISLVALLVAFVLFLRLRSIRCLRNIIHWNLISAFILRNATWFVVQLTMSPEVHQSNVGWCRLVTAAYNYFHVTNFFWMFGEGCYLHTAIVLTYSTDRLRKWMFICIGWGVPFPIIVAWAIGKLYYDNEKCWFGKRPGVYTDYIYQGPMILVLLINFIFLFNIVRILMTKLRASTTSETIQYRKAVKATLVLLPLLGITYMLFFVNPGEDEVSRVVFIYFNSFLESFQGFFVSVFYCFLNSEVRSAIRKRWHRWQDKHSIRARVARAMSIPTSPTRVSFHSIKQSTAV
How it was run: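 Using thawed CRF1R-overexpressing CHO cells at 2000 per well, compound is applied for 30 min at RT in HBSS/HEPES buffer with IBMX. Cellular cAMP content is determined via HTRF, and percent activity is calculated against 1000 nM UCN2 defined as 100%.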

[4] = pH 7.4, Solubility in Buffer C [mg/ml]
[5] = 0% HSA, read-out: EC50 [nM], 0% HSA

| solubility at 1 h [1, 4] [µg/mL] | Apparent Rh [nm] 0 weeks [2] [nm] | Scattering Intensity (I) [%] 0 weeks [2] [%] | Apparent Rh [nm] 4 weeks [2] [nm] | Scattering Intensity (I) [%] 4 weeks [2] [%] | Relative purity loss [%] [3] [%] | EC50 (human CRF2α receptor; [5]) [nM] | EC50 (rat CRF2R α receptor) [nM] | solubility at 1 h ([1]; pH 4.5, Solubility in Buffer A [mg/ml]) [µg/mL] | solubility at 1 h ([1]; pH 4.5, Solubility in Buffer B [mg/ml]) [µg/mL] | EC50 (human CRF2α receptor; 0.1% HSA, read-out: EC50 [nM], 0.1% HSA) [nM] | EC50 (CRF1R receptor; 0% HSA) [nM] | Emax (CRF1R receptor; read-out: Emax (%)) [%] | SMILES |
| --- | --- | --- | --- | --- | --- | --- | --- | --- | --- | --- | --- | --- | --- |
| > 9700 | 1.42 ± 0.08 | 88 ± 8 | 1.48 ± 0.11 | 98 ± 2 | 3.65 | 1.45 | 13.3 | – | – | – | – | – | CC[C@H](C)[C@H](N)C(=O)N[C@H](C(=O)N[C@@H](CC(C)C)C(=O)N[C@@H](CO)C(=O)N[C@@H](CC(C)C)C(=O)N[C@@H](CC(=O)O)C(=O)N[C@@H](C(=O)N1CCC[C@H]1C(=O)N[C@H](C(=O)N[C@@H](CCCCN)C(=O)N[C@@H](CC(C)C)C(=O)N[C@@H](CCCCNC(=O)COCCOCCNC(=O)COCCOCCNC(=O)CC[C@H](NC(=O)CCCCCCCCCCCCCCCCC(=O)O)C(=O)O)C(=O)N[C@@H](CCC(N)=O)C(=O)N[C@@H](CCCCN)C(=O)N[C@@H](CC(C)C)C(=O)N[C@@H](CC(C)C)C(=O)N[C@@H](CCCCN)C(=O)N[C@@H](CCC(N)=O)C(=O)N[C@@H](CCC(=O)O)C(=O)N[C@@H](CCCNC(=N)N)C(=O)N[C@@H](CCC(N)=O)C(=O)N[C@@H](CCCNC(=N)N)C(=O)N[C@@H](CCCCN)C(=O)NC(C)(C)C(=O)N[C@@H](CCCNC(=N)N)C(=O)N[C@@H](CCC(=O)O)C(=O)N[C@@H](CCC(N)=O)C(=O)N[C@@H](C)C(=O)N[C@@H](CCC(=O)O)C(=O)N[C@@H](CCCCN)C(=O)N[C@@H](CC(N)=O)C(=O)N[C@@H](CCCCN)C(=O)N[C@@H](CCCNC(=N)N)C(=O)N[C@H](C(=O)N[C@@H](CC(C)C)C(=O)N[C@@H](CCC(=O)O)C(=O)N[C@@H](CCCNC(=N)N)C(=O)N[C@H](C(N)=O)C(C)C)[C@@H](C)CC)[C@@H](C)O)C(C)C)C(C)C [compound 36] (H-IVLSLD[dV]PTKLK([AEEA-AEEA-γGlu-C18 diacid])QKLLKQERQRK[Aib]REQAEKNKRILERV-NH2; N-terminus assumed) |
| 8200 (≈ 1570 µM) | 2.75 ± 0.19 | 86 ± 4 | 2.82 ± 0.11 | 84 ± 1 | 2.85 | 0.06 | 0.26 | > 8600 | > 8700 | 3.12 | > 1000 | 4.38 | CC[C@H](C)[C@H](N)C(=O)N[C@H](C(=O)N[C@@H](CC(C)C)C(=O)N[C@@H](CO)C(=O)N[C@@H](CC(C)C)C(=O)N[C@@H](CC(=O)O)C(=O)N[C@@H](C(=O)N1CCC[C@H]1C(=O)N[C@H](C(=O)N[C@@H](CCCCN)C(=O)N[C@@H](CC(C)C)C(=O)N[C@@H](CCCCNC(=O)COCCOCCNC(=O)COCCOCCNC(=O)CC[C@H](NC(=O)CCCCCCCCCCCCCCCCC(=O)O)C(=O)O)C(=O)N[C@@H](CCC(N)=O)C(=O)N[C@H](C(=O)N[C@@H](CC(C)C)C(=O)N[C@@H](CC(C)C)C(=O)N[C@@H](CCCCN)C(=O)N[C@@H](CCC(N)=O)C(=O)N[C@@H](CCC(=O)O)C(=O)N[C@@H](CCCNC(=N)N)C(=O)N[C@@H](CCC(N)=O)C(=O)N[C@@H](CCCCN)C(=O)N[C@@H](CCCCN)C(=O)N[C@@H](CCC(N)=O)C(=O)N[C@@H](CCCNC(=N)N)C(=O)N[C@@H](CCC(=O)O)C(=O)N[C@@H](CCCCN)C(=O)N[C@@H](C)C(=O)N[C@@H](CCC(=O)O)C(=O)N[C@@H](CCCCN)C(=O)N[C@@H](CC(N)=O)C(=O)N[C@@H](CCCCN)C(=O)N[C@@H](CCC(N)=O)C(=O)N[C@H](C(=O)N[C@@H](CC(C)C)C(=O)N[C@@H](C)C(=O)N[C@@H](CCC(N)=O)C(=O)N[C@H](C(N)=O)C(C)C)[C@@H](C)CC)[C@@H](C)CC)[C@@H](C)CC)C(C)C)C(C)C [compound 138] (H-IVLSLD[dV]PIKLK([AEEA-AEEA-γGlu-C18 diacid])QILLKQERQKKQREKAEKNKQILAQV-NH2; N-terminus assumed) |
